Measurements published in patent US9730913B2 (THE JOHNS HOPKINS UNIVERSITY, priority 2011, dated 2017).
≈ marks a conversion by molar mass, not a printed value. Where “and” joins values, the source holds several entries; their conditions need not be identical. Identical values can stand only once.

Legend:
AmpC β-lactamase = AmpC β-lactamase (Escherichia coli, UniProt P00811); experiment: Spectrophotometric nitrocefin hydrolysis inhibition assay, AmpC
[1] = biological target: wild type TEM-1 β-lactamase (Escherichia coli, UniProt P62593); experiment: Spectrophotometric nitrocefin hydrolysis inhibition assay, TEM-1; assay type: biochemical; conditions: for IC50: inhibition values are IC50 unless noted
Description: (§1) The inhibition of beta lactamase was determined spectrophotometrically. Beta lactamase activity was followed by measuring the change in absorbance upon hydrolysis of nitrocefin, [3-(2,4-dinitrostyryl)-(6R,7R)-7-(2-thienylacetamido)-ceph-3-em-4-carboxylic acid, E-isomer], (Calbiochem, San Diego, Calif., USA) at 486 nm. Inhibition constants (Ki) for the inhibitors are obtained at the desired temperature and solvent conditions by measuring the rate of substrate hydrolysis at increasing amounts of inhibitors. All inhibition assays were performed at 25° C. in 50 mM sodium phosphate, 5% DMSO, pH 7.0, keeping the enzyme concentration at 5 nM and the substrate concentration at 167 μM. Reaction was started by addition of substrate to the corresponding mixture of enzyme and inhibitor preincubated for 10 minutes.

[2] = biological target: TEM-1 β-lactamase, Drug Resistant Mutants and AmpC β-lactamase; experiment: Average Ki over TEM-1, drug resistant mutants and AmpC; assay type: biochemical; conditions: mean over TEM-1, TEM-12, TEM-17, TEM-30, TEM-40, AmpC
Description: as §1

AmpC = conditions: read-out: Inhibitory Potency (IC50) AmpC; cited from earlier work
IMP-1 beta-lactamase = IMP-1 beta-lactamase (Serratia marcescens, UniProt P52699); experiment: Spectrophotometric nitrocefin hydrolysis inhibition assay, IMP-1
HSA = HSA (Homo sapiens, UniProt P02768); experiment: HSA binding (Kd)
Solubility = assay type: physicochemical
[3] = Microsomal stability (T1/2); assay type: in vitro ADME; conditions: microsomes
TEM-1 = TEM-1 (Escherichia coli, UniProt P62593); experiment: TEM-1 binding enthalpy (ΔH)
[4] = tested on: Vancomycin-resistant (VRSA) Staphylococcus aureus; experiment: Oxacillin MIC in presence of compound, VRSA; assay type: cell-based
[5] = tested on: Methicillin-resistant (MRSA) Staphylococcus aureus; experiment: Oxacillin MIC in presence of compound, MRSA; assay type: cell-based
[6] = Oxacillin MIC with compound at 4 μg/mL

Sequence of IMP-1 beta-lactamase (P52699 19-246, looked up): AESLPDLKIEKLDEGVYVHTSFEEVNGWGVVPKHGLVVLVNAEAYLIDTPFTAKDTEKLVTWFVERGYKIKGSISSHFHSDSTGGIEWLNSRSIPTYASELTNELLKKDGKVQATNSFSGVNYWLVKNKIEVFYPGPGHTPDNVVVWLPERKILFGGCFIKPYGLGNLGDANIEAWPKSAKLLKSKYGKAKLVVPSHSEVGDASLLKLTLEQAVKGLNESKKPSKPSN
Sequence of HSA (P02768 25-609): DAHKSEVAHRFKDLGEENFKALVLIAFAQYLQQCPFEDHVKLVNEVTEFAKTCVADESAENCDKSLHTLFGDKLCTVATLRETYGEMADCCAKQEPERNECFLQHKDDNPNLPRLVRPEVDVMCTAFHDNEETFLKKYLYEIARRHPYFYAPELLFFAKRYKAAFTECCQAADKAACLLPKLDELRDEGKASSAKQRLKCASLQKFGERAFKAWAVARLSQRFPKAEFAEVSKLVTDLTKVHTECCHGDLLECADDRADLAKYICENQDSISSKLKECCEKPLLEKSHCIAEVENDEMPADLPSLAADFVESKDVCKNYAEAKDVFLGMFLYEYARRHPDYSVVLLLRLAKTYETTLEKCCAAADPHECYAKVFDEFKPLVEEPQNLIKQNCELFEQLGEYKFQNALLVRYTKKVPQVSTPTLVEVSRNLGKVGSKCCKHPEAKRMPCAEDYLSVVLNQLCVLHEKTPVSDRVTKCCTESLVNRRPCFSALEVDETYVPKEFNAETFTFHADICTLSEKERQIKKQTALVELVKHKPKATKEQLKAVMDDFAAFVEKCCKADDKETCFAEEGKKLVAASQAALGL
Sequence of wild type TEM-1 β-lactamase (P62593 24-286 limits assumed): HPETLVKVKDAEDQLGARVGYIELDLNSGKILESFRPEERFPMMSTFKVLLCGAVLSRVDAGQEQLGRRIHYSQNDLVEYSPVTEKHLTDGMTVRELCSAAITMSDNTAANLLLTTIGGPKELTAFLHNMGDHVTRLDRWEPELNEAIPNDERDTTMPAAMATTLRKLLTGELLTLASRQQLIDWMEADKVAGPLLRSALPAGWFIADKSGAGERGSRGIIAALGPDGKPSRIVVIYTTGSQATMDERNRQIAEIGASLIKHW
Sequence of AmpC β-lactamase (P00811 20-377): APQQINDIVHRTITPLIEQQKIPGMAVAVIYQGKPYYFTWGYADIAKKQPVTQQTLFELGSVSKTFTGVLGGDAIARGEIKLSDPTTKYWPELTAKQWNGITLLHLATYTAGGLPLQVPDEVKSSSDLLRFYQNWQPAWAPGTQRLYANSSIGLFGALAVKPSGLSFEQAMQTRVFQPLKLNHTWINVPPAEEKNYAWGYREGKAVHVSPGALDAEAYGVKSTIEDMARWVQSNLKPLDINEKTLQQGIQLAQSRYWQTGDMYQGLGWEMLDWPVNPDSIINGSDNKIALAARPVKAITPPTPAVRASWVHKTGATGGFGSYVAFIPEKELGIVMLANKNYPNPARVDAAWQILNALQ
Sequence of TEM-1 (P62593 24-286 limits assumed): as the sequence (P62593 24-286 limits assumed) above

O=S(=O)(/C=C/c1cccc(Br)c1)Nc1cccc(-c2nnn(Cc3cccc(Cl)c3)n2)c1
Ki (AmpC β-lactamase): 0.182 µM | mode of inhibition of TEM-1 beta-lactamase ([1]; double reciprocal plot, FIG. 3): competitive inhibition | Ki [2]: 0.362 µM

O=C(O)[C@H]1/C(=C/CO)O[C@@H]2CC(=O)N21 [Clavulanic Acid]
IC50 (AmpC): ≥ 59 µM

CC1(C)[C@H](C(=O)O)N2C(=O)C[C@H]2S1(=O)=O [Sulbactam]
IC50 (AmpC): ≥ 3.8 µM

O=S(=O)(/C=C/c1cccc(Cl)c1)N(Cc1cccc(Cl)c1)c1cccc(Cl)c1 [ef-rs-03-075]
Ki (IMP-1 beta-lactamase): 0.496 ± 0.057 µM | Ki ([1]; 25° C., 50 mM sodium phosphate, 5% DMSO, pH 7.0, nitrocefin 167 μM, read-out: Ki TEM-1 (WT)): 0.082 ± 0.012 µM

COc1ccc(NS(=O)(=O)/C=C/c2cccc(Cl)c2)cc1OCc1cccc(Cl)c1 [ef-rs-04-091]
IC50 (IMP-1 beta-lactamase): 0.347 ± 0.043 µM | IC50 (AmpC β-lactamase): 0.671 ± 0.238 µM | Kd (HSA): 4.08 µM and 4.26 µM | solubility (Solubility): 19 µM (≈ 8.82 µg/mL) | half-life [3]: 70 ± 8 min | TEM-1 ΔH (TEM-1): +1.75 kcal/mol

COc1cccc(/C=C/S(=O)(=O)Nc2cccc(OCc3cccc(Cl)c3)c2)c1 [ef-rs-05-054]
IC50 (IMP-1 beta-lactamase): 0.734 ± 0.106 µM | IC50 (AmpC β-lactamase): 0.555 ± 0.036 µM | Kd (HSA): 0.0975 µM and 0.202 µM | solubility (Solubility): 6 µM (≈ 2.58 µg/mL) | half-life [3]: 59 ± 6 min | TEM-1 ΔH (TEM-1): +2.32 kcal/mol

O=S(=O)(/C=C/c1cccc(C(F)(F)F)c1)Nc1cccc(-c2nnn(Cc3cccc(Cl)c3)n2)c1 [ef-rs-05-076]
Ki (AmpC β-lactamase): 0.08 µM | Ki [2]: 0.176 µM

COc1ccc(NS(=O)(=O)/C=C/c2cccc([N+](=O)[O-])c2)cc1OCc1cccc(Cl)c1 [ef-rs-05-080]
IC50 (IMP-1 beta-lactamase): 1.1 ± 0.04 µM | IC50 (AmpC β-lactamase): 0.563 ± 0.063 µM | Kd (HSA): 4.58 µM and 5.35 µM | solubility (Solubility): 3 µM (≈ 1.42 µg/mL) | half-life [3]: 37 ± 4 min

O=S(=O)(/C=C/c1cccc(Cl)c1)Nc1cccc(OCc2cccc(Cl)c2)c1 [ef-rs-08-048]
IC50 (IMP-1 beta-lactamase): 0.487 ± 0.09 µM | IC50 (AmpC β-lactamase): 0.477 ± 0.059 µM | Kd (HSA): 0.113 µM and 0.252 µM | MIC (VRSA) [4 μg/ml] [4, 6]: 0.25 | reduction of Oxacillin MIC ([4]; compound at 4 μg/mL): 8 fold | solubility (Solubility): 19 µM (≈ 8.25 µg/mL) | MIC (MRSA) [4 μg/mL] [5, 6]: 2 | reduction of Oxacillin MIC ([5]; compound at 4 μg/mL): 8 fold | half-life [3]: 120 ± 10 min

O=S(=O)(/C=C/c1cccc(Cl)c1)N(Cc1cccc(Cl)c1)c1cccc(OCc2cccc(Cl)c2)c1 [ef-rs-08-052, (E)-N-(3-chlorobenzyl)-N-(3-(3-chlorobenzyloxy)phenyl)-2-(3-chlorophenyl)ethenesulfonamide]
Ki (IMP-1 beta-lactamase): 0.203 ± 0.051 µM | Ki (AmpC β-lactamase): 0.067 µM

O=S(=O)(/C=C/c1cccc(Cl)c1)Nc1cccc(OCc2cccc(F)c2)c1 [ef-rs-09-012]
IC50 (IMP-1 beta-lactamase): 0.157 ± 0.012 µM | IC50 (AmpC β-lactamase): 0.846 ± 0.1 µM | Kd (HSA): 0.049 µM and 0.052 µM | solubility (Solubility): 7 µM (≈ 2.93 µg/mL) | half-life [3]: 81 ± 14 min | IC50 [1]: 0.523 ± 0.084 µM

COc1ccc(NS(=O)(=O)/C=C/c2cccc(Cl)c2)cc1O [ef-rs-09-014]
IC50 (IMP-1 beta-lactamase): 4.69 ± 0.27 µM | IC50 (AmpC β-lactamase): 3.75 ± 0.5 µM | Kd (HSA): 2.51 ± 1.78 µM | solubility (Solubility): 450 µM (≈ 153 µg/mL) | half-life [3]: < 5 min | IC50 [1]: 2.47 ± 0.05 µM

COc1cccc(COc2cc(NS(=O)(=O)/C=C/c3cccc(Cl)c3)ccc2OC)c1 [ef-rs-09-018]
IC50 (IMP-1 beta-lactamase): 0.256 ± 0.033 µM | IC50 (AmpC β-lactamase): 1.07 ± 0.36 µM | Kd (HSA): 0.348 ± 0.053 µM | solubility (Solubility): 50 µM (≈ 23 µg/mL) | half-life [3]: 22 ± 6 min | IC50 [1]: 0.702 ± 0.091 µM

COc1cc(NS(=O)(=O)/C=C/c2cccc(Cl)c2)ccc1OCc1cccc(Cl)c1 [ef-rs-09-029]
IC50 (IMP-1 beta-lactamase): 0.171 ± 0.02 µM | IC50 (AmpC β-lactamase): 0.706 ± 0.066 µM | Kd (HSA): 0.484 ± 0.076 µM | solubility (Solubility): 8 µM (≈ 3.71 µg/mL) | IC50 [1]: 0.406 ± 0.077 µM

O=S(=O)(/C=C/c1cccc(Cl)c1)Nc1ccc(OCc2cccc(Cl)c2)cc1 [ef-rs-09-030]
IC50 (IMP-1 beta-lactamase): 0.063 ± 0.008 µM | IC50 (AmpC β-lactamase): 0.553 ± 0.058 µM | Kd (HSA): 0.301 ± 0.065 µM | solubility (Solubility): 6 µM (≈ 2.61 µg/mL) | IC50 [1]: 0.085 ± 0.021 µM
